{
  "source": "paper PMC7143261",
  "about": "(Foods, 2020)",
  "key": {"[1]": {"test": "Plasmatic serotonin after treatment (ELISA)", "type": "in vivo, Sprague Dawley rats", "details": "90 min after oral 50 µg melatonin/kg"}, "[2]": {"test": "Plasma total phenolic compounds (Folin-Ciocalteu) after treatment", "type": "in vivo, Sprague Dawley rats", "details": "90 min posttreatment, 50 µg melatonin/kg", "procedure": "(§1) Phytochemicals and metabolites were isolated using SPE.\nSamples (10 μL) were added to 150 μL of Folin-Ciocalteu reagent (diluted 1:15, v/v in Milli-Q water). After exactly 3 min, 20% Na2CO3 (50 μL) was added to each well. After 120 min at room temperature, the absorbance of the blue complex was measured at 760 nm using a microplate reader. The concentration of total phenolic compounds was expressed as mg GAE/mL."}, "[3]": {"test": "Plasmatic antioxidant capacity by FRAP after treatment", "type": "in vivo, Sprague Dawley rats", "details": "90 min after oral 50 µg melatonin/kg", "procedure": "as §1\nThe plasma samples were also used to assess the reducing antioxidant potential using the FRAP assay, as previously described. Briefly, 300 μL of a working FRAP reagent [acetate buffer 0.3 M pH 3.6, 10 mM TPTZ in 40 mM HCl and 20 mM FeCl3·6H2O (10:1:1) (v/v/v)] were tempered to 37 °C, and then 10 μL of plasma samples were added. The absorbance was taken at 593 nm against reagent blank after 10 min. FRAP values were calculated and reported as µM Trolox equivalents (µM TE)."}, "[4]": {"test": "Plasmatic antioxidant capacity by ORAC after treatment", "type": "in vivo, Sprague Dawley rats", "details": "90 min after oral 50 µg synthetic melatonin/kg", "procedure": "as §1\nThe above plasma samples were used to determine the radical scavenging activity via the ORAC method using fluorescein as a fluorescence probe. The assay was performed at 37 °C in 75 mM phosphate buffer (pH 7.4). The reaction mixture (200 μL) contained fluorescein (70 nM), 2,2-azobis (2-methyl-propionamidine)-dihydrochloride (12 mM), and samples (Trolox or samples). Fluorescence was read at 485/520 nm, excitation/emission, respectively. Black 96-well untreated microplates (PS Balck, Porvair, Leatherhead, UK) were used. The fluorescence signal was measured every minute for 80 min after automatic shaking. All reaction mixtures were prepared in triplicate, running them at least three times independently. Fluorescence was normalized to the oxidation control (phosphate buffer) and stability control (no antioxidant). The ORAC values were expressed as mM Trolox equivalents (mM TE) according to the protocol previously described."}, "[5]": {"details": "cited from earlier work"}, "in vivo": {"test": "in vivo", "details": "Sprague Dawley, rat, plasma, po, 50 ug/kg", "from_the_text": "(§2) The area under the curve (AUC) is the integral of the plasma concentration of an altered drug against an interval of definite time. Pharmacokinetic parameters including plasma elimination rate constant (Ke), elimination half-life (t1/2), time to reach measured maximum plasma concentration (Tmax), measured maximum plasma concentration (Cmax), area under the plasma concentration-time curve from the time zero to the time of last quantifiable concentration (AUC0–t), area under the plasma concentration-time curve from time zero to infinity (AUC0–∞), area under the plasma (first) moment concentration-time curve from time zero to infinity (AUMC0–∞), mean residence time (MRT), volume of distribution (VD/F), and clearance (Cl/F) were determined by noncompartmental methods."}, "[6]": {"test": "Bioavailability study: plasmatic melatonin 90 min after treatment (ELISA)", "details": "90 min after oral 50 µg synthetic melatonin/kg", "method": "Each of the four groups (10 rats) was administered the treatment and sacrificed on a different day. […] The administration was performed through a gavage using a suitable intubation cannula. After that, the rats were individually caged, and a cling film was placed below the cage to obtain the urine samples. After 90 min of extract administration, all rat groups were anesthetized by CO2. Urine was collected from the cling film with a pipette and transferred to a vial. […] The blood was collected by cardiac puncture, transferred to vials containing 5% heparin, and centrifuged at 4 °C for 15 min at 2100 g. […] Phytochemicals and metabolites were isolated using SPE. First, plasma and urine samples were centrifuged at 15000 g for 4 min at 4 °C. Then, samples were filtered using C18 SPE cartridges (Waters, Cerdanyola del Vallès, Spain). Finally, the eluted obtained fractions were evaporated to dryness (Speed Vac SC 200, Savant Instruments, Farmingdale, NY, USA) and reconstituted before being assayed."}, "[7]": {"test": "Pharmacokinetic study of plasma melatonin after single oral dose of lentil sprouts extract", "from_the_text": "as §2"}, "[8]": {"details": "Sprague Dawley, rat, plasma, po, 50 ug/kg"}, "[9]": {"details": "oral lentil sprouts, 50 µg melatonin/kg"}},
  "data": [
    {"smiles": "COc1ccc2[nH]cc(CCNC(C)=O)c2c1", "note": "[melatonin, N-acetyl-5-methoxytryptamine]", "values": [
      {"measurement": "enhancement of plasmatic serotonin concentration in contrast to the Fasting group", "setting": "[1]", "result": 2.7, "unit": "fold"},
      {"measurement": "change of TPC concentration in plasma", "setting": "[2]", "result": "nonsignificant"},
      {"measurement": "increase of plasmatic antioxidant capacity (FRAP)", "setting": "[3]", "result": 4, "unit": "%"},
      {"measurement": "increment of plasmatic antioxidant capacity (ORAC) vs the fasting group", "setting": "[4]", "result": 32, "unit": "%"},
      {"measurement": "time of absorption in the gastrointestinal tract post-oral administration", "setting": "[5]", "result": 45, "unit": "min"},
      {"measurement": "Cmax", "setting": "in vivo", "result": "0.0454 ± 0.0035", "unit": "ng/mL"},
      {"measurement": "Tmax", "setting": "in vivo", "result": 1.5, "unit": "h"},
      {"measurement": "plasmatic melatonin concentration lower than that of the Lentil Sprouts group", "setting": "[6]", "result": 22, "unit": "%"},
      {"measurement": "half-life", "setting": "[7]; Sprague Dawley, rat, in vivo, po, 50 ug/kg", "result": "109 ± 13", "unit": "min"},
      {"measurement": "CL/F", "setting": "[7]; [8]", "result": 5500, "unit": "mL/min/kg"},
      {"measurement": "half-life", "setting": "[7]; [8]", "result": "~100", "unit": "min"},
      {"measurement": "k el", "setting": "[7]; [8]", "result": 0.000108, "unit": "s⁻¹"},
      {"measurement": "MRT inf", "setting": "[7]; Sprague Dawley, rat, plasma, po, 50 ug/kg, MRT 0-∞, oral lentil sprouts, 50 µg melatonin/kg", "result": "~3.33", "unit": "h"},
      {"measurement": "time of maximum plasma melatonin concentration postadministration", "setting": "[7]; oral lentil sprouts extract, 50 µg melatonin/kg", "result": 1.5, "unit": "h"},
      {"measurement": "AUC 0-t /dose", "setting": "[7]; [9]", "result": "131.2 ± 19.3 (pg/mL min)/(μg/kg)"},
      {"measurement": "AUC 0-∞", "setting": "[7]; [9]", "result": "9381 ± 2008", "unit": "pg·min/mL"},
      {"measurement": "AUMC 0-∞", "setting": "[7]; [9]", "result": "1897356 ± 589030", "unit": "pg/mL min^2"},
      {"measurement": "Cl/F", "setting": "[7]; [9]", "result": "0.33 ± 0.07 (μg/kg)/(pg/mL)/h"},
      {"measurement": "MRT 0-∞", "setting": "[7]; [9]", "result": "199.4 ± 19.8", "unit": "min"},
      {"measurement": "VD/F", "setting": "[7]; [9]", "result": "0.85 ± 0.08 (μg/kg)/(pg/mL)"},
      {"measurement": "volume of distribution (VD/F)", "setting": "[7]; [9]", "result": 0.85, "unit": "L/g"},
      {"measurement": "AUC 0-t", "setting": "[7]; oral lentil sprouts, 50 µg melatonin/kg, 0-240 min", "result": "6560 ± 963", "unit": "pg·min/mL"}
    ]}
  ]
}
